Ki, Activity and viability data for 24 compounds are collected here from ChEMBL document CHEMBL5352444, “Development of benzene and benzothiazole-sulfonamide analogues as selective inhibitors of the tumor-associated carbonic anhydrase IX” (Eur J Med Chem, 2022).

The target of series [1] is Carbonic anhydrase 9 (Homo sapiens, UniProt Q16790). Nature of the series: Inhibition of human carbonic anhydrase 9 assessed as inhibition constant incubated for 15 mins by phenol red dye based stopped flow CO2 hydration assay.
In series [2] the target is Carbonic anhydrase 4 (Homo sapiens, UniProt P22748). Nature of the series: Inhibition of human carbonic anhydrase 4 assessed as inhibition constant preincubated for 15 mins and measured for 10 to 100 sec by phenol red dye based stopped flow CO2 hydration assay.
The target of series [3] is Carbonic anhydrase 1 (Homo sapiens, UniProt P00915). Nature of the series: Inhibition of human carbonic anhydrase 1 assessed as inhibition constant preincubated for 15 mins and measured for 10 to 100 sec by phenol red dye based stopped flow CO2 hydration assay.
Series [4] addresses Carbonic anhydrase 2 (Homo sapiens, UniProt P00918). In words: Inhibition of human carbonic anhydrase 2 assessed as inhibition constant preincubated for 15 mins and measured for 10 to 100 sec by phenol red dye based stopped flow CO2 hydration assay.
The nature of series [5]: Cytotoxicity against HGF cells assessed as increase in cell viability at 50 uM incubated for 72 hrs by MTT assay relative to control. The conditions noted are these: human. The series is classed as toxicity, cell-based.
Series [6] is described as follows: Cytotoxicity against HGF cells assessed as increase in cell viability at 10 uM incubated for 48 hrs by MTT assay relative to doxorubicin. It is filed as toxicity, cell-based. To be noted: human.
Series [7] can be described thus: Cytotoxicity against HGF cells assessed as increase in cell viability at 10 uM incubated for 72 hrs by MTT assay relative to control. It is filed as toxicity, cell-based. The conditions noted are these: human.
Series [8] can be described thus: Cytotoxicity against HGF cells assessed as increase in cell viability at 50 uM incubated for 48 hrs by MTT assay relative to doxorubicin. The series is classed as toxicity, cell-based. To be noted: human.
A short description of series [9]: Cytotoxicity against HGF cells assessed as cell viability at 50 uM incubated for 72 hrs by MTT assay relative to control. The series is classed as toxicity, cell-based. The conditions noted are these: human, read-out: Activity.
Series [10] in a line: Cytotoxicity against HGF cells assessed as increase in cell viability at 10 uM incubated for 72 hrs by MTT assay relative to doxorubicin. It is filed as toxicity, cell-based. To be noted: human.
Series [11] is described as follows: Cytotoxicity against HGF cells assessed as increase in cell viability at 50 uM incubated for 48 hrs by MTT assay relative to control. The series is classed as toxicity, cell-based. The conditions noted are these: human.
A short description of series [12]: Cytotoxicity against HGF cells assessed as increase in cell viability at 10 uM incubated for 48 hrs by MTT assay relative to control. It is filed as toxicity, cell-based. The conditions noted are these: human.

Carbonic anhydrase 4, sequence (P22748 whole entry): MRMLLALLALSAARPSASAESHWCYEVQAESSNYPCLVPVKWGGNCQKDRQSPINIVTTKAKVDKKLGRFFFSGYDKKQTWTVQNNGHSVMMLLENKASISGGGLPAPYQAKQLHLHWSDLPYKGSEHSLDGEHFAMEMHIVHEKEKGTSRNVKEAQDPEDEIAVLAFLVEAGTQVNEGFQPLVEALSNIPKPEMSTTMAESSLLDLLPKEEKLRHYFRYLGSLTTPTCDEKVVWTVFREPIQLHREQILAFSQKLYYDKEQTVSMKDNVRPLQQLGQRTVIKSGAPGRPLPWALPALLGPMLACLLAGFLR
Carbonic anhydrase 1, sequence (P00915 whole entry): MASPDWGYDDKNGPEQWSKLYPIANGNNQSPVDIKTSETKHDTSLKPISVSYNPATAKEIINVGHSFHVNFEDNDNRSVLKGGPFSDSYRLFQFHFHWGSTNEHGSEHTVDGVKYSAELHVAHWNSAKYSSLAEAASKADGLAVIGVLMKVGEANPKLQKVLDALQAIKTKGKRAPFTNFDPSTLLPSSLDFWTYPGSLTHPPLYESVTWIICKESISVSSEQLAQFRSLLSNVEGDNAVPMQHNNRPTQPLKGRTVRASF

Take `CN1CCN(C(=S)SCC(=O)Nc2ccc(S(N)(=O)=O)cc2)CC1`: the values for the inhibition constant Ki in [1] and in series [2] were 0.255 µM and 0.42 µM, respectively.

For `NS(=O)(=O)c1ccc(NC(=O)CSC(=S)N2CCCCC2)cc1`, the Ki in series [1] stood at 0.261 µM; in [3], 0.0275 µM; in series [4], 0.006 µM; in series [2] it was 0.406 µM.

On to `COc1ccccc1N1CCN(C(=S)SCC(=O)Nc2nc3ccc(S(N)(=O)=O)cc3s2)CC1`, for which the Activity result is given as “Toxic” in series [5]; “Non-Toxic” in series [6]; “Toxic” in [7]; “Non-Toxic” in series [8]; “Non-Toxic” in [10]. In addition, the inhibition constant Ki in series [1] is 0.0303 µM; in [3] it was 5.03 µM; in series [4] it was 0.0515 µM; in series [2] it was 7.26 µM. The viability at 72 h, 50 µM in series [9] is > 60%.

With `NS(=O)(=O)c1ccc2nc(NC(=O)CSC(=S)N3CCN(C(c4ccccc4)c4ccccc4)CC3)sc2c1`, the Ki in [1] came to 0.157 µM; in series [3], 9.15 µM; in series [4], 0.965 µM; in series [2], 7.64 µM.

Turning to `CC(=O)Nc1nnc(S(N)(=O)=O)s1` [ACETAZOLAMIDE], the Activity entry in series [5] is recorded as “Toxic”; in series [6] it was “Non-Toxic”; in series [8] it was “Non-Toxic”; in series [10] it was “Non-Toxic”. For the same compound, in [9], the viability at 72 h, 50 µM is > 60%.

In the case of `CCN1CCN(C(=S)SCC(=O)Nc2ccc(S(N)(=O)=O)cc2)CC1`, the inhibition constant Ki in series [1] is 0.296 µM; in series [3] it was 0.0082 µM; in series [4], 0.0049 µM; in series [2], 0.189 µM.

As for `COc1ccccc1N1CCN(C(=S)SCC(=O)Nc2ccc(S(N)(=O)=O)cc2)CC1`, the Activity entry is reported as “Toxic” in series [5]; “Non-Toxic” in series [6]; “Toxic” in series [11]; “Toxic” in series [7]; “Non-Toxic” in series [8]; “Non-Toxic” in [10]. Moreover, the Ki is 0.0322 µM in [1], 0.0366 µM in series [3], 0.611 µM in series [4] and > 10 µM in series [2]. Also, in series [9], the viability at 72 h, 50 µM is > 60%.

With `NS(=O)(=O)c1ccc(NC(=O)CSC(=S)N2CCN(c3ccccc3)CC2)cc1`, the inhibition constant (Ki) in series [1] is 0.744 µM; in series [3], 0.707 µM; in series [4], 0.24 µM; in series [2], 1.47 µM.

On to `NS(=O)(=O)c1ccc(NC(=O)CSC(=S)N2CCOCC2)cc1`, for which the inhibition constant Ki turned out to be 0.162 µM in [1], 0.0728 µM in [3], 0.0072 µM in series [4] and 0.649 µM in series [2].

For the compound `CCOC(=O)N1CCN(C(=S)SCC(=O)Nc2ccc(S(N)(=O)=O)cc2)CC1`, the Ki in series [1] came out at 0.136 µM; in [3], 0.0548 µM; in series [4] it was 0.0057 µM; in series [2], 0.779 µM.

With `NS(=O)(=O)c1ccc(NC(=O)CSC(=S)N2CCN(Cc3ccccc3)CC2)cc1`, the Ki turned out to be 0.0316 µM in [1], 0.0841 µM in series [3], 0.0174 µM in series [4] and 3.4 µM in series [2].

Consider `NS(=O)(=O)c1ccc(NC(=O)CSC(=S)N2CCN(C(c3ccccc3)c3ccccc3)CC2)cc1`, for which the Ki stood at 0.154 µM in series [1], 1.81 µM in series [3], 0.441 µM in series [4] and 8.45 µM in [2].

`COc1ccc(N2CCN(C(=S)SCC(=O)Nc3ccc(S(N)(=O)=O)cc3)CC2)cc1`: the Ki in [1] was 0.564 µM; in series [3] it was 2.08 µM; in series [4], 0.298 µM; in series [2], 0.901 µM.

On to `NS(=O)(=O)c1ccc(NC(=O)CSC(=S)N2CCN(c3ccc(F)c(Cl)c3)CC2)cc1`, for which the Ki in [1] amounted to 0.277 µM; in series [3], 2.12 µM; in series [4] it was 0.438 µM; in series [2], 2.44 µM.

On to `NS(=O)(=O)c1ccc2nc(NC(=O)CSC(=S)N3CCCCC3)sc2c1`, for which the Ki in series [1] came to 0.0266 µM; in [3], 0.0856 µM; in series [4], 0.0038 µM; in [2], 7.44 µM.

On to `NS(=O)(=O)c1ccc2nc(NC(=O)CSC(=S)N3CCOCC3)sc2c1`, for which the Ki worked out at 0.0268 µM in series [1], 0.0088 µM in series [3], 0.0279 µM in [4] and 8.12 µM in [2].

For the compound `CCOC(=O)N1CCN(C(=S)SCC(=O)Nc2nc3ccc(S(N)(=O)=O)cc3s2)CC1`, the Activity result in [5] is recorded as “Toxic”; in series [6], “Non-Toxic”; in [7] it was “Toxic”; in series [8], “Non-Toxic”; in series [10], “Non-Toxic”. The inhibition constant (Ki) in [1] is 0.0221 µM; in series [3], 7.57 µM; in series [4] it was 0.0503 µM; in [2], > 10 µM. In addition, the viability at 72 h, 50 µM in [9] was > 60%.

In the case of `NS(=O)(=O)c1ccc2nc(NC(=O)CSC(=S)N3CCN(c4ccccc4)CC3)sc2c1`, the Ki was 0.115 µM in series [1], 4.19 µM in series [3], 0.0914 µM in [4] and > 10 µM in series [2].

Consider `CN1CCN(C(=S)SCC(=O)Nc2nc3ccc(S(N)(=O)=O)cc3s2)CC1`, for which the inhibition constant (Ki) in [1] worked out at 0.0306 µM; in [3] it was 0.0208 µM; in [4], 0.0041 µM; in series [2], 5.09 µM.

For the compound `COc1cccc2c1C(=O)c1c(O)c3c(c(O)c1C2=O)C[C@@](O)(C(=O)CO)C[C@@H]3O[C@H]1C[C@H](N)[C@H](O)[C@H](C)O1` [DOXORUBICIN], the Activity entry in series [5], in [11], in [7] and in series [12] was “Toxic” each time.

Regarding `CCN1CCN(C(=S)SCC(=O)Nc2nc3ccc(S(N)(=O)=O)cc3s2)CC1`, the Ki was 0.0288 µM in series [1], 0.0561 µM in [3], 0.0025 µM in series [4] and 5.93 µM in series [2].

Regarding `Cc1ccc(N2CCN(C(=S)SCC(=O)Nc3ccc(S(N)(=O)=O)cc3)CC2)cc1`, the Ki in series [1] turned out to be 1.25 µM; in [3], 2.01 µM; in series [4], 0.371 µM; in [2] it was 2.31 µM.

Turning to `NS(=O)(=O)c1ccc2nc(NC(=O)CSC(=S)N3CCN(Cc4ccccc4)CC3)sc2c1`, the Activity entry in [5] was “Toxic”; in series [6], “Non-Toxic”; in [7], “Toxic”; in series [8], “Non-Toxic”; in series [10], “Non-Toxic”. Also, the Ki amounted to 0.0259 µM in series [1], 0.599 µM in [3], 0.297 µM in series [4] and 5.54 µM in series [2]. Also, the viability at 72 h, 50 µM in series [9] was > 60%.

With `COc1ccc(N2CCN(C(=S)SCC(=O)Nc3nc4ccc(S(N)(=O)=O)cc4s3)CC2)cc1`, the Activity result in series [5] is “Toxic”; in [6], “Non-Toxic”; in series [7], “Toxic”; in series [8] it was “Non-Toxic”; in series [10], “Non-Toxic”. Moreover, the Ki is 0.0309 µM in [1], 0.958 µM in series [3], 0.363 µM in [4] and > 10 µM in series [2]. In addition, in series [9], the viability at 72 h, 50 µM is > 60%.
